Assay results taken from patent US8361971B2, “Tablet formulation of ezatiostat” (Telik, Inc., priority 2010, dated 2013).
One block for each molecule: values may come before it.

How the values were obtained:
Format in all cases: physicochemical
[1] = Assay and impurities by HPLC of tablets on storage; parameters: key to Individual Impurities RRT = 0.74 / Individual Impurities RRT = 0.83 / TLK 236 RRT = 0.88 / Individual Impurities RRT = 0.94 / Individual Impurities RRT = 0.96 / Total impurities / Individual Impurities RRT = 0.80 / Individual Impurities RRT = 0.81 / Individual Impurities RRT = 0.86 / Individual Impurities RRT = 0.99: impurity content in %
From the text: As used herein, “impurity” refers to one or more of: TLK 236, another polymorphic form of ezatiostat hydrochloride including without limitation form A, B, C, E, or F, and any other compound other than ezatiostat hydrochloride ansolvate, which may be identified by HPLC. TLK 236 is a monoester derived from the partial hydrolysis of ezatiostat where the phenyl glycine moiety remains esterified.
(§1) As described above, form E converts to form B simply during tableting.
(§2) Tablets of ansolvate form D, were packaged with and without desiccant (Sorb-It Cannister, 1 gram). Fifty tablets were packaged in a round, white 1500 mL bottle with a screw cap over an induction seal. Impurities were assayed by HPLC. When stored at 25° C./60% RH with desiccant for 3 months, no increase in total impurities was observed. When stored at 40° C./75% RH with desiccant for 3 months, total impurities increased only by 0.3%. When stored at 40° C./75% RH without desiccant for 3 months, total impurities still increased by 1.1%. As tabulated below, the presence of desiccant appears to further increase the stability of the ansolvate form D. Even though the dissolution rate of tablets containing polymorph D from one batch was below specification (<70%) at an initial test as well as after 3 months at 25° C./60% RH with desiccant, the subsequent batches met the required specification.

[2] = Assay and impurities by HPLC of tablets on storage; parameters: key to Individual Impurities RRT = 0.74 / TLK 236 RRT = 0.88 / Individual Impurities RRT = 0.96 / Total impurities: impurity content in %; conditions: 6 Month at 40° C./75% RH without desiccant, hydrochloride
[3] = Tablet dissolution (Q at 45 min); conditions: tablets, hydrochloride
From the text: Without being bound by theory, a higher dissolution rate relates to a higher amount of the active agent in the gastric fluid, which in turn relates to higher bioavailability of the active agent. A high bioavailability is desired, for example and without limitation, for reducing inter patient variability of drug exposure for a orally administered agent such as ezatiostat hydrochloride. […] The aqueous solubility can be measured in a variety of aqueous solvents, including without limitation, water, 0.9% aqueous NaCl, 5% dextrose for injection, phosphate buffered saline, and generally aqueous solutions having a pH of less than about 5. Such solvents may include suitable buffers and other salts. […]
as §2

[4] = X-ray diffraction, polymorphic form in tablets; conditions: hydrochloride; for X-ray Diffraction: tablets
Procedure: X-ray powder diffraction (XRPD) analyses were performed on a Shimadzu XRD-6000 X-ray powder diffractometer using Cu Kα radiation from a long fine focus X-ray tube, operated at 40 kV, 40 mA. The divergence and scattering slits were set at 1° and the receiving slit was set at 0.15 mm. Diffracted radiation was detected by a NaI scintillation detector. A θ-2θ continuous scan at 3°/min (0.4 sec/0.02° step) from 2.5°-40° 2θ was used. A silicon standard was analyzed to check alignment of the instrument. Data were collected and analyzed using XRD-6000 v.4.1 software.
Stress experiments: solids were stressed under different temperature and/or relative humidity (RH) environments for a measured time period. Specific RH values were achieved by placing the sample inside sealed chambers containing saturated salt solutions. Samples were analyzed by XRPD immediately after removal from the stress environment.
as §1, §2

[5] = Description (appearance) of tablets on storage
Procedure: as §2

[6] = Water content of tablets on storage; conditions: hydrochloride
Procedure: Karl Fischer analyses for water determination were performed on a Mettler Toledo DL39 Karl Fischer titrator. About 10-15 mg of sample was placed in the KF titration vessel containing approximately 100 mL of Hydranal®—Coulomat AD reagent and mixed for 60 seconds to ensure dissolution. The dissolved sample was then titrated by means of a generator electrode which produces iodine by electrochemical oxidation. […]
as §2

[7] = 3 Month at 40° C./75% RH without desiccant, hydrochloride
[8] = 6 Month at 40° C./75% RH without desiccant, hydrochloride
[9] = 3 Month at 40° C./75% RH without desiccant
[10] = 6 Month at 40° C./75% RH without desiccant

SMILES: CCOC(=O)[C@@H](N)CCC(=O)N[C@@H](CSCc1ccccc1)C(=O)N[C@@H](C(=O)OCC)c1ccccc1.Cl [Polymorphic form B, ezatiostat hydrochloride]
rate of decomposition relative to ansolvate form D ([1]; Total impurities of Tables 5-7): more than double the rate of decomposition of the ansolvate form D

Assay (HPLC) [1, 7]: 94.1 % Label Claim
Individual Impurities RRT = 0.74 [1, 7]: 0.16
Individual Impurities RRT = 0.80 [1, 7]: 0.08
Individual Impurities RRT = 0.81 [1, 7]: 0.07
Individual Impurities RRT = 0.83 [1, 7]: 0.10
Individual Impurities RRT = 0.94 [1, 7]: 0.07
Individual Impurities RRT = 0.96 [1, 7]: 0.16
Individual Impurities RRT = 0.99 [1, 7]: 0.07
TLK 236 RRT = 0.88 [1, 7]: 1.99
Total impurities [1, 7]: 2.7
Individual Impurities RRT = 0.80 [1, 8]: 0.14
Individual Impurities RRT = 0.81 [1, 8]: 0.05
Assay (HPLC) ([1]; Initial, hydrochloride): 97.2 % Label Claim
Individual Impurities RRT = 0.74 ([1]; Initial, hydrochloride): 0.13
Individual Impurities RRT = 0.83 ([1]; Initial, hydrochloride): 0.46
Individual Impurities RRT = 0.96 ([1]; Initial, hydrochloride): 0.16
TLK 236 RRT = 0.88 ([1]; Initial, hydrochloride): 0.45
Total impurities ([1]; Initial, hydrochloride): 1.2
Assay (HPLC) [2]: 91.5 % Label Claim
Individual Impurities RRT = 0.59/0.62 [2]: 0.07
Individual Impurities RRT = 0.74 [2]: 0.15
Individual Impurities RRT = 0.96 [2]: 0.21
TLK 236 RRT = 0.88 [2]: 2.92
Total impurities [2]: 3.5
Dissolution, Mean at 45 min [3, 9]: Mean = 74 % of label claim
Dissolution, Mean at 45 min [3, 10]: Mean = 71 % of label claim
Dissolution, Mean at 45 min ([3]; Initial): Mean = 12 % of label claim
X-ray Diffraction [4, 9]: Polymorph A
X-ray Diffraction [4, 10]: Polymorph A
X-ray Diffraction ([4]; Initial): Polymorph A
Description [5, 9]: Off-white
Description [5, 8]: Off-white
Description ([5]; Initial): White round
Water Content [6, 9]: 1.7%
Water Content [6, 10]: 1.9%
Water Content ([6]; Initial): 2.1%
SMILES: CCOC(=O)[C@@H](N)CCC(=O)N[C@@H](CSCc1ccccc1)C(=O)N[C@@H](C(=O)OCC)c1ccccc1.Cl [Polymorph Form A, ezatiostat hydrochloride]
polymorphic conversion during tablet manufacture ([4]; listed as solvate form A): converting into a mixture of forms A and D during manufacture

Individual Impurities RRT = 0.59/0.62 [1, 9]: 0.07
Individual Impurities RRT = 0.86 [1, 9]: 0.06
Assay (HPLC) [1, 7]: 90.3 % Label Claim
Individual Impurities RRT = 0.74 [1, 7]: 0.42
Individual Impurities RRT = 0.80 [1, 7]: 0.16
Individual Impurities RRT = 0.81 [1, 7]: 0.14
Individual Impurities RRT = 0.83 [1, 7]: 0.31
Individual Impurities RRT = 0.94 [1, 7]: 0.08
Individual Impurities RRT = 0.96 [1, 7]: 0.19
Individual Impurities RRT = 0.99 [1, 7]: 0.20
TLK 236 RRT = 0.88 [1, 7]: 3.45
Total impurities [1, 7]: 5.1
Individual Impurities RRT = 0.80 [1, 8]: 0.41
Individual Impurities RRT = 0.81 [1, 8]: 0.17
Individual Impurities RRT = 0.83 [1, 8]: 0.16
Individual Impurities RRT = 0.99 ([1]; Initial): 0.12
Assay (HPLC) ([1]; Initial, hydrochloride): 93.7 % Label Claim
Individual Impurities RRT = 0.74 ([1]; Initial, hydrochloride): 0.38
Individual Impurities RRT = 0.83 ([1]; Initial, hydrochloride): 0.34
Individual Impurities RRT = 0.96 ([1]; Initial, hydrochloride): 0.20
TLK 236 RRT = 0.88 ([1]; Initial, hydrochloride): 0.42
Total impurities ([1]; Initial, hydrochloride): 1.5
Assay (HPLC) [2]: 84.6 % Label Claim
Individual Impurities RRT = 0.59/0.62 [2]: 0.15
Individual Impurities RRT = 0.74 [2]: 0.51
Individual Impurities RRT = 0.96 [2]: 0.24
TLK 236 RRT = 0.88 [2]: 4.66
Total impurities [2]: 6.3
Dissolution, Mean at 45 min [3, 9]: Mean = 33 % of label claim
Dissolution, Mean at 45 min [3, 10]: Mean = 19 % of label claim
Dissolution, Mean at 45 min ([3]; Initial): Mean = 46 % of label claim
X-ray Diffraction [4, 9]: Polymorph B
X-ray Diffraction [4, 10]: Polymorph B
X-ray Diffraction ([4]; Initial): Polymorph B
Description [5, 9]: Off-white
Description [5, 8]: Brown round
Description ([5]; Initial): White round
Water Content [6, 9]: 2.3%
Water Content [6, 10]: 2.3%
Water Content ([6]; Initial): 3.5%
SMILES: CCOC(=O)[C@@H](N)CCC(=O)N[C@@H](CSCc1ccccc1)C(=O)N[C@@H](C(=O)OCC)c1ccccc1.Cl [Polymorph Form E, ezatiostat hydrochloride]
polymorphic conversion on storage ([4]; 40° C. and 75% RH without a desiccant, form D 6 months, form E 3 months, listed as solvate form E): transforms into a mixture of form B and the ansolvate form D within 3 months
polymorphic conversion during tablet manufacture ([4]; listed as solvate form E): transforms almost entirely to form B crystals merely during tablet manufacture
